{
  "source": "patent US20200237909A1",
  "about": "“METHODS OF TREATING OR PREVENTING BREAST CANCER METASTASES USING ANTIBODIES TO JAGGED1 AND CHEMOTHERAPEUTIC AGENTS” (The Trustees of Princeton University, priority 2017, published 2020)",
  "key": {"[1]": {"conditions": "mouse, in vivo", "procedure": "(§1) To analyze liver toxicity, the activity of alanine aminotransferase (ALT) and aspartate aminotransferase (AST) in the sera of these mice after the respective drug treatments was measured.\n(§2) For IgG or 15D11 antibody treatment, mice were i.p. injected at the dosing of 10 mg/kg, twice a week."}, "[2]": {"system": "MSCs", "assay": "Stress inducers/inhibitors: Jagged1 expression and ROS production in MSCs", "assay_type": "cell-based, mouse", "description": "Next, which signaling pathway is responsible for Jagged1 induction after chemotherapy in osteoblast lineage cells was investigated. Chemotherapy generates many stress responses in cells, including endoplasmic reticulum stress (ER stress), and oxidative stress. Some of the stress conditions have been associated with the regulation of Jagged1 expression (Paul et al., 2014). Several treatments were used to mimic or inhibit these stress responses and then Jagged1 mRNA and protein levels were analyzed within the cells.\n293T, H29-Clone #7, MC3T3-E1 Clone #4(denoted as MC3T3 for abbreviation thereafter), MCF7TR, mouse mesenchymal stromal cell (MSC, isolated from BALB/c), 4T1.2, SCP28, SCP28-Vector and -Jagged1 cells, SCP28, RAW264.7, and SUM1315-M1B1 cells were cultured according to American Type Culture Collection instructions and the inventors' previous studies (Ell et al., 2013; Ren et al., 2008; Sethi et al., 2011; Zheng et al., 2014). MSC cells were derived previously and were cultured in DMEM supplemented with 10% FBS, 30 ng/ml bFGF, 100 U/ml penicillin, and 100 μg/ml streptomycin (Ren et al., 2008). All plasmids were transfected into different cell lines using Lipofectamine 2000 following the manufacturer's manual (Life Technologies, CA, USA). To generate stable cell lines, a pLEX-MCS based lentivirus vector or a pMSCV-hygro based retrovirus vector was used in our study. Lentiviruses were packaged in HEK293T cells while retroviruses were packaged by using H29 cell line. Conditional media from these packaging cells containing viruses were collected 2 days and 3 days after transfection. Recipient cell lines were exposed to conditional media containing viruses supplemented with 2 μg/mL Polybrene for 48 h. Infected cells were selected with puromycin or hygromycin to generate stable expressing cell lines. 293T and H29clone #7 are cell lines from female humans. All other cancer cell lines are breast cancer cell lines from either female human or mouse."}, "[3]": {"assay": "In vivo toxicity of 15D11 (body weight, GI histology, ALT/AST, CBC, T cells)", "procedure": "as §1, §2"}, "[4]": {"system": "Notch downstream genes (human HES2, HEY1, HEY2)", "assay": "Notch downstream gene expression in tumor cells co-cultured with MSC after chemotherapy", "assay_type": "cell-based", "conditions": "co-culture tumor cells after chemotherapy"}},
  "note": "Read-outs that look alike come from different tables or passages of the source.",
  "data": [
    {"compound": "ClC(Cl)(Cl)Cl", "note": "[CCl4]", "values": [
      {"measurement": "liver toxicity: ALT and AST activity in sera", "setting": "[1]", "result": "dramatic increase"}
    ]},
    {"compound": "CC(=O)N[C@@H](CS)C(=O)O", "note": "[N-Acetyl Cysteine]", "values": [
      {"measurement": "block of cisplatin and docetaxel induced ROS production", "setting": "[2]; MSCs", "result": "completely blocked"},
      {"measurement": "block of cisplatin-induced Jagged1 expression", "setting": "[2]; MSCs", "result": "completely blocked"}
    ]},
    {"compound": "C[C@H]1CCC/C=C/[C@@H]2C[C@H](O)C[C@H]2[C@H](O)/C=C/C(=O)O1", "note": "[Brefeldin A (BFA), Brefeldin A]", "values": [
      {"measurement": "Jagged1 expression in MSCs", "setting": "[2]", "result": "did not induce Jagged1 expression"}
    ]},
    {"compound": "OO", "note": "[H2O2]", "values": [
      {"measurement": "Jagged1 expression in MSCs", "setting": "[2]", "result": "induced a strong Jagged1 expression"}
    ]},
    {"compound": "O=S1(=O)N[C@@]2(CN1CC(F)(F)F)[C@@H]1CC[C@H]2Cc2ccc(/C=C/CN3CCC(C(F)(F)F)CC3)cc2C1", "note": "[GSI]", "values": [
      {"measurement": "general toxicity based on body weight measurement", "setting": "[3]; 15D11 10 mg/kg, twice a week", "result": "significant weight loss"},
      {"measurement": "GI track toxicity (H&E and Alcian blue staining)", "setting": "[3]; mouse, in vivo", "result": "significant goblet cell metaplasia"},
      {"measurement": "liver toxicity: ALT and AST activity in sera", "setting": "[3]; mouse, in vivo", "result": "no change"}
    ]},
    {"compound": "CC(=O)O[C@@]12CO[C@@H]1C[C@H](O)[C@@]1(C)C(=O)[C@H](O)C3=C(C)[C@@H](OC(=O)[C@H](O)[C@@H](NC(=O)OC(C)(C)C)c4ccccc4)C[C@@](O)([C@@H](OC(=O)c4ccccc4)[C@H]21)C3(C)C", "note": "[docetaxel]", "values": [
      {"measurement": "Notch downstream genes HES2, HEY1, HEY2", "setting": "[4]", "result": "significantly upregulated"},
      {"measurement": "ROS production in MSCs", "setting": "[2]", "result": "induced ROS production"}
    ]},
    {"compound": "Tunicamycin", "values": [
      {"measurement": "Jagged1 expression in MSCs", "setting": "[2]", "result": "did not induce Jagged1 expression"}
    ]}
  ]
}
